From patent publication US20200003760A1, “IN-VITRO METHODS FOR CLASSIFYING DRUGS ACCORDING TO THEIR POTENTIAL TO CAUSE LIVER CELL INJURY” (Board of Trustees of Michigan State University, priority 2018, published 2020)
Like-named read-outs stand apart in the source and are kept apart here.

Experiments:
[1] = Logistic regression classification model: probability that a drug is associated with IDILI; design: species or system human; conditions: for Estimated probability: probability that drug is associated with IDILI, covariates Deltadiff, EC50 VEH, EC50 TNF, Delta VEH, Cmax, optimal cutoff 0.46
Text: Classification modeling using defined covariates. In the second phase of analysis, classification models were developed using logistic regression with covariates as independent variables in the analysis and known IDILI classification as the dependent variable. A model selection process was used to determine if a covariate or set of covariates is associated with IDILI liability. Covariates were first evaluated individually to determine how well a particular covariate classified drugs according to IDILI liability, and then covariates were evaluated in combination. Combinations of covariates were selected to maximize the ability of the model to distinguish between drugs associated or not with IDILI. Specifically, covariates that describe changes in efficacy (Delta, Deltadiff, etc.) were paired with covariates that describe changes in potency (EC50, EC10, R10, etc.) to find covariate combinations that led to models that most accurately discriminated between drugs that are and are not associated with IDILI. […] The logistic regression models follow the equation: […]
where ŷi is the calculated (predicted) probability that drug i with a vector of covariates xi is associated with IDILI. The β coefficients (β0, the regression intercept; and βi, the regression slopes for model covariates, xi) were derived from the logistic regression models using 1) combinations of the covariates (xi) generated by concentration-response modeling for each of the 24 drugs evaluated in this study, and 2) the true IDILI classification for the dependent variable yi (i.e., 1 for IDILI+drugs and 0 for IDILI-drugs). […] This occurs when a covariate almost perfectly separates observations into the appropriate categories. […] When separation or quasi-complete separation occurs, use of the standard method (i.e., maximum likelihood estimation) provides biased, unreliable estimates of βi.
Receiver operating characteristic (ROC) analysis. In the third phase of the statistical approach, the classification models, generated as logistic regression models using single covariates or combinations of covariates, were evaluated by ROC analysis to determine which model and corresponding sets of covariates led to the most accurate classification of drugs according to their potential to cause IDILI. An ROC curve was created for each model by graphing the true positive rate (sensitivity; i.e., proportion of drugs correctly classified as associated with IDILI) against the false positive rate (1-specificity; i.e., proportion of drugs incorrectly classified as associated with IDILI) at various probability cutoff thresholds (k). […] An area under the curve (AUC) and confidence interval was computed for each ROC curve (where each logistic regression model has one ROC curve). […] Corresponding to each ROC curve is an optimal threshold value (k*), the threshold yielding the highest point of accuracy on the curve (i.e., the point nearest the point […] on the curve). Thus, each ROC curve has a corresponding AUC and an optimal cutoff (k*) that corresponds to the highest point of accuracy on that ROC curve.

[2] = cited from earlier work
HepG2 cells = experiment: Drug/cytokine-induced cytotoxicity (% LDH release) concentration-response in HepG2 cells; format: cell-based, human; design: key to Deltadiff: LDH release percentage points (drug/TNF Delta minus drug/VEH Delta); conditions: for R10 IFN: with IFN; for R10 TNF: with TNF; for R10 TNF/IFN / EC10 TNF/IFN: with TNF and IFN; for Deltadiff: Delta of drug/TNF curve minus Delta of drug/VEH curve (LDH percentage); for TNF change: D10TNF − D10VEH; for EC10 TNF/IFN / EC10 TNF / EC10 IFN: value corresponding to 10% of Delta; for EC10 TNF/IFN / EC10 TNF / EC10 / EC10 IFN: NA = no significant increase; for cytotoxic interaction of drug with TNF: TNF 10 ng/ml; for effect of IFN coexposure on the drug/TNF cytotoxic interaction: TNF and IFN 10 ng/ml each; for cytotoxicity of drug on its own (LDH release): absence of cytokines; for EC10 TNF: with TNF 10 ng/ml; for EC10: value corresponding to 10% of Delta (max-min); for EC10 IFN: with IFN 10 ng/ml
Procedure: Cells were passed or used for experiments when they reached approximately 80% confluence. Cells were used at passage 6-16.
HepG2 cells were plated at a density of 4×10^4 cells per well in black-walled, 96-well, tissue culture plates and were allowed to attach overnight before being treated with compounds. Drugs were reconstituted in vehicles consisting of sterile water or DMSO (concentration less than 0.5%). Cells were treated with various concentrations of the drug or its vehicle (control) alone or in combination with the cytokines TNF (10 ng/ml) and/or IFN (10 ng/ml) or their PBS vehicle (VEH). Cytotoxicity was evaluated as lactate dehydrogenase (LDH) activity released from the cells into culture medium using the Homogeneous Membrane Integrity Assay kit from Promega (Madison, Wis.).
Concentration-response curves were generated for 24 drugs, 14 of which are associated with human IDILI and 10 of which are not. […] This was necessary because four-parameter logistic modeling used in the statistical analysis requires well defined, sigmoidal concentration-response curves. Cells were exposed to drug/cytokine combinations for 24 hours. For analysis of drug concentration-response data, concentrations of each drug were expressed as a fraction of its Cmax.
Defining covariates: four-parameter logistic model. In the first phase, variables (potential covariates) for use in the classification analysis were defined from the analysis of drug concentration-response data. Initially, a one-way analysis of variance (ANOVA) was used as an omnibus test to determine if a particular treatment (e.g. drug alone or in combination with TNF and/or IFN) caused a significant change in LDH release relative to baseline (i.e., LDH release in the absence of drug, hereafter designated “min”). The criterion for significance for the ANOVA was set at α=0.01. A 1% level of significance was used to rule out more vigorously marginal relationships between concentration and response.
where LDH(x) is the percentage of LDH released at a given concentration x; x=[drug]/Cmax; min=the % LDH release at 0 drug concentration (i.e., baseline); and max=the maximal LDH response (i.e., maximum % LDH release).
where D10 is a categorical variable related to reaching a threshold LDH response above which a drug is classified as positively associated with IDILI. D10 is defined as 0 if Delta<10% LDH release and as 1 if Delta≥10% LDH release.
The base covariate R10 represents the [drug]/Cmax value associated with an increase in 10 LDH percentage points above min for a particular treatment condition and was determined by the equation:
R10 was considered to be 0 when the Delta<10% LDH (i.e. when D10=0).
EC50 quotient, EC10 quotient and R10 quotient represent the ratio between the EC50, EC10 or R10 of the drug/cytokine concentration-response curve and the respective value for the drug/VEH concentration-response curve. In some instances, the value derived from this calculation is indeterminate (i.e. when the denominator=0). In order to incorporate the quotient values into the classification models described below, the categorical variable “Q” was used to eliminate the possibility of the quotient being indeterminate. Q is defined as 0 if Delta VEH and/or Delta cytokine is <10% LDH and 1 if both Delta VEH and Delta cytokine are ≥10% LDH. […] The same condition was applied for calculation of EC10 quotient and R10 quotient.
Deltadiff represents the difference between the Delta of the drug/cytokine concentration-response curve and the Delta of the drug/VEH curve. In other words, Deltadiff=(Delta cytokine)−(Delta VEH). FIG. 1 graphically illustrates several of the covariates defined above. […] In addition to the covariates derived from the concentration-response curves, the maximal therapeutic plasma drug concentration (Cmax) in human patients was used in some models (Table 1).

[3] = cited from earlier work; for True classification: IDILI in human patients; for IDILI liability: criteria of Xu et al. (2008)
[4] = 10 percent increase in LDH response above min, 0 when D10 = 0, drug alone (VEH)
[5] = 10 percent increase in LDH response above min, 0 when D10 = 0
[6] = Homo sapiens, HepG2, categorical, Delta threshold 10 LDH percentage points, drug alone (VEH), read-out: D10
[7] = Homo sapiens, HepG2, maximal LDH response, drug alone (VEH), 24 h, read-out: max
[8] = maximal plasma concentration after pharmacologic dosing in human patients

Row | SMILES | R10 (HepG2 cells; [4]) | R10 IFN (HepG2 cells; [5]) | R10 TNF (HepG2 cells; [5]) | R10 TNF/IFN (HepG2 cells; [5]) | Deltadiff (HepG2 cells) | Emax (HepG2 cells; [6]) [%] | Emax (HepG2 cells; [7]) [%] | TNF change (HepG2 cells; categorical) | Estimated probability [1] | Cmax [2, 8] [µM] | True classification [3] | IDILI liability [3] | EC10 TNF/IFN (HepG2 cells) | cytotoxic interaction of drug with TNF (HepG2 cells; HepG2, 24 h) | cytotoxicity of drug on its own (LDH release) (HepG2 cells; HepG2, 24 h) | EC10 TNF (HepG2 cells) | further results
1 | CC(C)(O)C(=O)Nc1ccc([N+](=O)[O-])c(C(F)(F)F)c1 [2-hydroxyflutamide] | – | – | – | – | – | – | – | – | – | – | – | – | – | – | – | – | calculated probability for association with IDILI ([1]; best-performing classification model): 0.999; Cmax ([2]; metabolite of flutamide in vivo): 5.74 µM
2 | CC(=O)Oc1ccccc1C(=O)O [Aspirin] | 0 [drug]/Cmax | 0 [drug]/Cmax | 0 [drug]/Cmax | 0 [drug]/Cmax | 0 | < 10 | 11 | 0 | 0.1445 | 47 | IDILI− | IDILI− | – | – | – | – | –
3 | CC[C@H]1OC(=O)[C@H](C)[C@@H](O[C@H]2C[C@@](C)(OC)[C@@H](O)[C@H](C)O2)[C@H](C)[C@@H](O[C@@H]2O[C@H](C)C[C@H](N(C)C)[C@H]2O)[C@](C)(O)C[C@@H](C)CN(C)[C@H](C)[C@@H](O)[C@]1(C)O [Azithromycin] | 0 [drug]/Cmax | 0 [drug]/Cmax | 0 [drug]/Cmax | 333.9 [drug]/Cmax | 0 | < 10 | 11.6 | 0 | 0.1276 | 0.5 | IDILI− | IDILI− | 59.2 [drug]/Cmax | – | – | – | synergy with cytokines to kill HepG2 cells (HepG2 cells; HepG2, 24 h, TNF and/or IFN): modestly cytotoxic in the presence of TNF/IFN
4 | Nc1c(CC(=O)O)cccc1C(=O)c1ccc(Br)cc1 [Bromfenac] | 0 [drug]/Cmax | 0 [drug]/Cmax | 40.6 [drug]/Cmax | 28.9 [drug]/Cmax | 22.6 | < 10 | 13.8 | 1 | 0.9397 | 13.5 | IDILI+ | IDILI+ | 18.9 [drug]/Cmax | synergized with TNF to cause cytotoxicity | caused no cytotoxicity on their own | 22.6 [drug]/Cmax | effect of IFN coexposure on the drug/TNF cytotoxic interaction (HepG2 cells; HepG2, 24 h): coexposure to IFN enhanced the cytotoxic interaction
5 | CN(C)CCCN1c2ccccc2Sc2ccc(Cl)cc21 [Chlorpromazine] | 36.0 [drug]/Cmax | 34.8 [drug]/Cmax | 31.5 [drug]/Cmax | 25.3 [drug]/Cmax | −15.3 | – | 111 | – | 0.961 | 0.84 | IDILI+ | IDILI+ | 24.1 [drug]/Cmax | TNF significantly enhanced the cytotoxicity | statistically significant increase in LDH release | 30.5 [drug]/Cmax | effect of IFN coexposure on the drug/TNF cytotoxic interaction (HepG2 cells; HepG2, 24 h): coexposure to IFN enhanced the cytotoxic interaction; D10 (LDH rise of at least 10 points, yes/no) (HepG2 cells; Homo sapiens, HepG2, categorical, Delta threshold 10 LDH percentage points, drug alone (VEH)): > 10%; EC10 (HepG2 cells; drug alone (VEH)): 35.8 [drug]/Cmax; EC10 IFN (HepG2 cells): 34.1 [drug]/Cmax
6 | COc1ccc2cc([C@H](C)C(=O)O)ccc2c1 [Naproxen] | 60.5 [drug]/Cmax | 65.9 [drug]/Cmax | 24.3 [drug]/Cmax | 18.4 [drug]/Cmax | −9.3 | > 10 | 102 | – | 0.8589 | – | IDILI+ | – | 17.3 [drug]/Cmax | – | – | 23.6 [drug]/Cmax | EC10 (HepG2 cells; drug alone (VEH)): 59.8 [drug]/Cmax; EC10 IFN (HepG2 cells): 64.8 [drug]/Cmax
7 | CS(=O)(=O)Nc1ccc([N+](=O)[O-])cc1Oc1ccccc1 [Nimesulide] | – | 0 [drug]/Cmax | 32.0 [drug]/Cmax | 33.5 [drug]/Cmax | 92.3 | – | 14.6 | 1 | 1 | 21.1 | – | – | 33.2 [drug]/Cmax | synergized with TNF to cause cytotoxicity | caused no cytotoxicity on their own | 31.8 [drug]/Cmax | R10 (HepG2 cells): 0 [drug]/Cmax; Emax (HepG2 cells; Homo sapiens, HepG2, read-out: D10): < 10%
